We go through 54 compounds from patent US20220142165A1 (priority 2019, published 2022).

The subject of series [1] is tomato late blight pathogen (Phylophihora infeslans). The experiment in a line: whole plant or invertebrate. The class given is in vivo. The note with it: Phytophthora infestans, 96 h, read-out: Control value.
The test system of series [2] is grape downy mildew pathogen (Plasmopara viticola). As to the kind of experiment: Grape downy mildew control test (Test Example 2). Format: in vivo. The note with it: 100 ppm by mass, sprayed on grape leaf disc (variety Chardonnay) before inoculation, blotch area ratio seven days after inoculation, 20° C.; for pest or weed control at 100 ppm: Plasmopara viticola, foliar, 168 h. As for the experimental part: 5 parts by mass of the compound according to the present invention, 93.5 parts by mass of dimethylformamide, and 1.5 parts by mass of polyoxyethylene alkylaryl ether were mixed and dissolved to prepare an emulsion (I) containing 5% by mass of an active ingredient.
The control value was calculated according to the following formula.
Control value (%)=100−{blotch area ratio in treated area/blotch area ratio in untreated area}×100
Water was added to the emulsion (I) such that the concentration of the heterocyclic compound became 100 ppm by mass, and then the heterocyclic compound was dissolved therein to obtain a pharmaceutical solution. Then, the pharmaceutical solution was sprayed on a leaf disc of grape (variety “Chardonnay”) placed on agar in a 6-well plate. After air-drying, the leaf disc on which the pharmaceutical solution was sprayed was inoculated with zoosporangia of grape downy mildew pathogen (Plasmopara viticola) in a suspension by spraying the suspension thereon (treated area). As a control, a leaf disc on which no pharmaceutical solution was sprayed was inoculated in the same way as mentioned above (untreated area). The resultant leaf discs were left in a moist chamber at 20° C. Seven days after inoculation, the grape leaf discs were visually observed to measure the blotch area ratio to calculate the control value.

As to `CCCCC(Oc1ccc2ncsc2c1)c1nnco1` (stereo not drawn) [a-1, 2-(1-(benzo[d]thiazol-6-yloxy)pentyl)-1,3,4-oxadiazole], the pest or weed control at 125 ppm in series [1] is ≥ 75%.

With `Fc1ccc(C(Oc2ccc3ncsc3c2)c2nnco2)nc1` (stereo not drawn) [a-8, 2-((benzo[d]thiazol-6-yloxy)(5-fluoropyridin-2-yl)methyl)-1,3,4-oxadiazole], the pest or weed control at 125 ppm in series [1] is ≥ 75%. The pest or weed control at 100 ppm in series [2] is ≥ 75%. With `Fc1ccc(C(Oc2cc(Br)c3ncsc3c2)c2nnco2)nc1` (stereo not drawn) [a-20, 2-((4-bromobenzo[d]thiazol-6-yloxy)(5-fluoropyridin-2-yl)methyl)-1,3,4-oxadiazole], the pest or weed control at 125 ppm in series [1] was ≥ 75%. The pest or weed control at 100 ppm in series [2] is ≥ 75%. Turning to `CC#Cc1ccnc(C(Oc2ccc3ncsc3c2)c2nnco2)c1` (stereo not drawn) [a-45, 2-((benzo[d]thiazol-6-yloxy)(4-(prop-1-yn-1-yl)pyridin-2-yl)methyl)-1,3,4-oxadiazole], the pest or weed control at 125 ppm in series [1] is ≥ 75%. The pest or weed control at 100 ppm in series [2] was ≥ 75%. Take `CCOCc1ccnc(C(Oc2ccc3ncsc3c2)c2nnco2)c1` (stereo not drawn) [a-75]: the Control value entry in series [2] is on record as “a-75%”.

Consider `COCOCc1ccnc(C(Oc2ccc3nc(C)sc3c2)c2nnco2)c1` (stereo not drawn) [a-175], for which the Control value entry in series [2] is “a-175%”. Broadly, the melting point is the temperature of the solid-liquid transition. The compound `Cn1cnc2ccc(OC(c3ccccc3)c3nnco3)cc21` (stereo not drawn) [b-3] yielded a melting point of 114 to 116 °C. For the same compound, in series [1], the pest or weed control at 125 ppm was ≥ 75%.

Regarding `CCCCC(Oc1ccc2ncn(C)c2c1)c1nnco1` (stereo not drawn) [b-4], the pest or weed control at 125 ppm in series [1] was ≥ 75%. The same measure, in the same setting: the result for `c1ccc(C(Nc2ccc3ncsc3c2)c2nnco2)cc1` (stereo not drawn) [b-5] reads ≥ 75%; that for `Cn1cnc2ccc(OC(c3ccc(F)cn3)c3nnco3)cc21` (stereo not drawn) [b-6], ≥ 75%; that for `Cn1cnc2ccc(OC(c3ccc(Cl)cc3)c3nnco3)cc21` (stereo not drawn) [b-7], ≥ 75%. Same read-out and setting: the figure for `Cn1cnc2c(F)cc(OC(c3ccc(F)cn3)c3nnco3)cc21` (stereo not drawn) [b-8] is ≥ 75%. On to `CO/N=C/c1ccnc(C(Oc2ccc3ncsc3c2)c2nnco2)c1` (stereo not drawn) [b-9], for which the pest or weed control at 125 ppm in series [1] is ≥ 75%. Further, the pest or weed control at 100 ppm in series [2] is ≥ 75%. `Fc1ccc(C(Oc2ccc3nnsc3c2)c2nnco2)nc1` (stereo not drawn) [b-10]: the melting point lay within 141 to 142 °C. Moreover, the pest or weed control at 125 ppm in series [1] was ≥ 75%. Further, the pest or weed control at 100 ppm in series [2] is ≥ 75%.

With `Clc1ccc(C(Oc2ccc3nnsc3c2)c2nnco2)nc1` (stereo not drawn) [b-12], the melting point was 133 to 134 °C. The pest or weed control at 125 ppm in series [1] was ≥ 75%. The pest or weed control at 100 ppm in series [2] was ≥ 75%. With `CO/N=C/c1ccnc(C(Oc2cc(Br)c3ncsc3c2)c2nnco2)c1` (stereo not drawn) [b-13], the pest or weed control at 125 ppm in series [1] is ≥ 75%. The pest or weed control at 100 ppm in series [2] is ≥ 75%.

On to `CCc1cc(OC(c2cc(/C=N/OC)ccn2)c2nnco2)cc2scnc12` (stereo not drawn) [b-14], for which the pest or weed control at 125 ppm in series [1] is ≥ 75%. Also, the pest or weed control at 100 ppm in series [2] was ≥ 75%. Regarding `CO/N=C/c1cc(C(Oc2ccc3ncsc3c2)c2nnco2)ncc1F` (stereo not drawn) [b-15], the melting point was in the range of 136 to 138 °C. Also, in series [1], the pest or weed control at 125 ppm was ≥ 75%. Further, in series [2], the pest or weed control at 100 ppm is ≥ 75%.

With `CO/N=C/c1ccnc(C(Oc2ccc3nnsc3c2)c2nnco2)c1` (stereo not drawn) [b-16], the melting point lay within 172 to 173 °C. Further, the pest or weed control at 100 ppm in series [2] is ≥ 75%. `CCO/N=C/c1ccnc(C(Oc2ccc3ncsc3c2)c2nnco2)c1` (stereo not drawn) [b-17] had a melting point of 113 to 114 °C. For the same compound, the pest or weed control at 125 ppm in series [1] is ≥ 75%. In addition, in series [2], the pest or weed control at 100 ppm was ≥ 75%. `CC(C)O/N=C/c1ccnc(C(Oc2ccc3ncsc3c2)c2nnco2)c1` (stereo not drawn) [b-18]: the pest or weed control at 125 ppm in series [1] was ≥ 75%. In series [2], the pest or weed control at 100 ppm is ≥ 75%. `FC(F)(F)CO/N=C/c1ccnc(C(Oc2ccc3ncsc3c2)c2nnco2)c1` (stereo not drawn) [b-19] gave a melting point of 128 to 130 °C. In addition, in series [2], the pest or weed control at 100 ppm is ≥ 75%. Regarding `C#CCO/N=C/c1ccnc(C(Oc2ccc3ncsc3c2)c2nnco2)c1` (stereo not drawn) [b-20], in series [1], the pest or weed control at 125 ppm is ≥ 75%. In addition, in series [2], the pest or weed control at 100 ppm was ≥ 75%. Compound `CO/N=C/c1ccnc(C(Oc2ccc3nc(C)sc3c2)c2nnco2)c1` (stereo not drawn) [b-21] returned a melting point of 107 to 109 °C. The pest or weed control at 125 ppm in series [1] was ≥ 75%. For the same compound, the pest or weed control at 100 ppm in series [2] was ≥ 75%. Regarding `CO/N=C/c1ccnc(C(Oc2ccc3ncsc3c2)c2nnco2)n1` (stereo not drawn) [b-25], in series [1], the pest or weed control at 125 ppm was ≥ 75%. As to `CO/N=C/c1ccnc(C(Oc2ccc3nc(OC)sc3c2)c2nnco2)c1` (stereo not drawn) [b-28], the pest or weed control at 100 ppm in series [2] is ≥ 75%.

As for `CCc1nc2ccc(OC(c3cc(/C=N/OC)ccn3)c3nnco3)cc2s1` (stereo not drawn) [b-29], the pest or weed control at 125 ppm in series [1] was ≥ 75%. In series [2], the pest or weed control at 100 ppm was ≥ 75%. On to `CC(C)=NOc1ccnc(C(Oc2ccc3ncsc3c2)c2nnco2)c1` (stereo not drawn) [b-33], for which, in series [1], the pest or weed control at 125 ppm was ≥ 75%. The pest or weed control at 100 ppm in series [2] is ≥ 75%. As to `CNc1nc2ccc(OC(c3cc(/C=N/OC)ccn3)c3nnco3)cc2s1` (stereo not drawn) [b-36], the pest or weed control at 125 ppm in series [1] is ≥ 75%. In series [2], the pest or weed control at 100 ppm is ≥ 75%. Turning to `CO/N=C/c1cc(C(Oc2ccc3ncsc3c2)c2nnco2)ncc1Cl` (stereo not drawn) [b-37], in series [1], the pest or weed control at 125 ppm is ≥ 75%. Further, the pest or weed control at 100 ppm in series [2] was ≥ 75%. With `CO/N=C\c1cc(C(Oc2ccc3ncsc3c2)c2nnco2)ncc1F` (stereo not drawn) [b-38], in series [1], the pest or weed control at 125 ppm was ≥ 75%. In addition, in series [2], the pest or weed control at 100 ppm was ≥ 75%. In the case of `CO/N=C/c1cc(C(Oc2ccc3ncsc3c2)c2nnco2)ncc1Br` (stereo not drawn) [b-39], in series [1], the pest or weed control at 125 ppm was ≥ 75%. The pest or weed control at 100 ppm in series [2] is ≥ 75%. For the compound `CO/N=C/c1cc(C(Oc2ccc3ncsc3c2)c2nnco2)ncc1SC` (stereo not drawn) [b-41], the pest or weed control at 100 ppm in series [2] was ≥ 75%. `CO/N=C/c1cc(C(Oc2ccc3nc(Br)sc3c2)c2nnco2)ncc1F` (stereo not drawn) [b-43] showed a melting point of 151 to 154 °C. Further, the pest or weed control at 100 ppm in series [2] is ≥ 75%. As for `Cc1nc2ccc(OC(c3cc(/C=N/OCC4CC4)c(F)cn3)c3nnco3)cc2s1` (stereo not drawn) [b-49], the pest or weed control at 125 ppm in series [1] was ≥ 75%. Moreover, the pest or weed control at 100 ppm in series [2] was ≥ 75%. For `c1ccc(-c2ccnc(C(Oc3ccc4nnsc4c3)c3nnco3)c2)cc1` (stereo not drawn) [b-51], the pest or weed control at 125 ppm in series [1] is ≥ 75%. Also, the pest or weed control at 100 ppm in series [2] was ≥ 75%. `CCc1cc(OC(c2cc(/C=N/OC)c(Br)cn2)c2nnco2)cc2sc(C)nc12` (stereo not drawn) [b-52]: the melting point is 160 to 161 °C. For the same compound, in series [2], the pest or weed control at 100 ppm was ≥ 75%. In turn, `CO/N=C/c1cc(C(Oc2ccc3nc(I)sc3c2)c2nnco2)ncc1F` (stereo not drawn) [b-53] showed a melting point of 166 to 168 °C. In addition, the pest or weed control at 100 ppm in series [2] was ≥ 75%. The like results for `CO/N=C/c1cc(C(Oc2ccc3nc(OC)sc3c2)c2nnco2)ncc1F` (stereo not drawn) [b-54] were, in that order, 134 to 136 °C and ≥ 75%. On to `CO/N=C/c1cc(C(Oc2cc(Br)c3ncsc3c2)c2nnco2)ncc1F` (stereo not drawn) [b-56], for which the melting point fell in the range of 170 to 172 °C. Besides, the pest or weed control at 125 ppm in series [1] is ≥ 75%. On to `CO/N=C/c1cc(C(Oc2ccc3ncsc3c2)c2nnco2)ncc1C` (stereo not drawn) [b-59], for which the pest or weed control at 100 ppm in series [2] is ≥ 75%.

In turn, `CO/N=C/c1cc(C(Oc2ccc3ncsc3c2)c2nnco2)ncc1[S+](C)[O-]` (stereo not drawn) [b-61] registered a melting point of 85 to 88 °C. For the same compound, the pest or weed control at 100 ppm in series [2] is ≥ 75%. Regarding `C(=N\OCc1nnco1)/c1ccnc(C(Oc2ccc3ncsc3c2)c2nnco2)c1` (stereo not drawn) [b-67], in series [1], the pest or weed control at 125 ppm was ≥ 75%. Turning to `C(=N\OCC1CC1)/c1ccnc(C(Oc2ccc3ncsc3c2)c2nnco2)c1` (stereo not drawn) [b-68], in series [1], the pest or weed control at 125 ppm is ≥ 75%. Besides, the pest or weed control at 100 ppm in series [2] is ≥ 75%. With `CCCO/N=C/c1ccnc(C(Oc2ccc3ncsc3c2)c2nnco2)c1` (stereo not drawn) [b-69], the pest or weed control at 125 ppm in series [1] is ≥ 75%. For the same compound, the pest or weed control at 100 ppm in series [2] is ≥ 75%.

As to `COCCO/N=C/c1ccnc(C(Oc2ccc3ncsc3c2)c2nnco2)c1` (stereo not drawn) [b-70], the pest or weed control at 125 ppm in series [1] is ≥ 75%. The pest or weed control at 100 ppm in series [2] was ≥ 75%. `CO/N=C/c1cc(C(Oc2ccc3nc(C)sc3c2)c2nnco2)ncc1F` (stereo not drawn) [b-71] had a melting point of 167 to 168 °C.

As for `CO/N=C/c1cc(C(Oc2ccc3nc(C(F)F)sc3c2)c2nnco2)ncc1F` (stereo not drawn) [b-72], the melting point fell in the range of 143 to 144 °C. The pest or weed control at 100 ppm in series [2] is ≥ 75%.

As for `CO/N=C/c1cc(C(Oc2ccc3ncsc3c2C)c2nnco2)ncc1F` (stereo not drawn) [b-77], the melting point is 108 to 110 °C. Further, the pest or weed control at 100 ppm in series [2] is ≥ 75%. On to `CO/N=C/c1cc(C(Oc2ccc3ncsc3c2N)c2nnco2)ncc1F` (stereo not drawn) [b-78], for which, in series [1], the pest or weed control at 125 ppm was ≥ 75%. Consider `C(=NOCc1ccccc1)C(Oc1ccc2ncsc2c1)c1nnco1` (stereo not drawn) [b-81], for which the pest or weed control at 100 ppm in series [2] is ≥ 75%. Regarding `CCCCON=CC(Oc1ccc2ncsc2c1)c1nnco1` (stereo not drawn) [b-83], the pest or weed control at 100 ppm in series [2] was ≥ 75%. With `COCCO/N=C/c1cc(C(Oc2ccc3ncsc3c2)c2nnco2)ncc1F` (stereo not drawn) [b-85], in series [1], the pest or weed control at 125 ppm is ≥ 75%. Besides, the pest or weed control at 100 ppm in series [2] was ≥ 75%.

With `COCCO/N=C/c1cc(C(Oc2ccc3nc(C)sc3c2)c2nnco2)ncc1F` (stereo not drawn) [b-86], in series [1], the pest or weed control at 125 ppm is ≥ 75%. Further, the pest or weed control at 100 ppm in series [2] was ≥ 75%.
